Results reported in ChEMBL document CHEMBL5729211, “Amine compound for inhibiting SSAO/VAP-1 and use thereof” (2022).
pIC50: −log10 of the molar value.

Target: T1, Amine oxidase [copper-containing] 3 (Homo sapiens, UniProt Q16853)
T1 sequence (Q16853 whole entry): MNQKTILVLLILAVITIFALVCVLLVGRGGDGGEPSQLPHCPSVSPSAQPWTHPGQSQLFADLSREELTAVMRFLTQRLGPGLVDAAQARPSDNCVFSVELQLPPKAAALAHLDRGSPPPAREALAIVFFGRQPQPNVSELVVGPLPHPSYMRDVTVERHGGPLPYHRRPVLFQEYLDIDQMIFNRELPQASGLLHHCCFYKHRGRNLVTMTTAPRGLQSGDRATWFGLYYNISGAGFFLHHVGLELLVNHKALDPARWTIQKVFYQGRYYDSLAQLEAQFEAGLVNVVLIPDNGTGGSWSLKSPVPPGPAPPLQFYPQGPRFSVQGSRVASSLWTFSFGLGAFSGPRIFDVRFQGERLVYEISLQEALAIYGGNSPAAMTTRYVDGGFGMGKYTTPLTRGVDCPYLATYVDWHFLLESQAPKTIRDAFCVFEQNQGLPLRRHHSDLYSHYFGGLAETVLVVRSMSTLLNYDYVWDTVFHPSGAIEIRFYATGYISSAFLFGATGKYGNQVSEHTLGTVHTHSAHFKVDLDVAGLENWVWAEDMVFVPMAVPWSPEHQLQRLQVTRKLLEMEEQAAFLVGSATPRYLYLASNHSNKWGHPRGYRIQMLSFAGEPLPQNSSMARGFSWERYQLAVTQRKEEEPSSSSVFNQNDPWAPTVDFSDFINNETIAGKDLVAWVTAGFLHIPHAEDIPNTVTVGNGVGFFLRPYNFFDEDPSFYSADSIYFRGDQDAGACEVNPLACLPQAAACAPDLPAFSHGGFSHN
Assay: Biological Assay: 1. Determination of Inhibitory Activity of Human Recombinant SSAO/VAP-1Test purpose: The following methods can be used to determine the inhibitory activity of the compounds described in the examples of the invention for human recombinant SSAO/VAP-1.Test Materials:Human recombinant SSAO/VAP-1 (VAP-1, human) purchased from Sigma, Cat. No. SRP6241;Amplex® Red Monoamine Oxidase Assay Kit purchased from Invitrogen, Cat. No. A12214;384-Well plate purchased from Corning, Cat. No. 6005174;Amplex® Red Hydrogen PeroxidePeroxidase Assay Kit purchased from Invitrogen, Cat. No. A22188.Benzylamine hydrochloride purchased from Sigma, Cat. No. B5136-25G;DMSO (Dimethyl Sulfoxide) purchased from Sigma, Cat. No. D2650-100ML;Test Method:The test compound was dissolved in DMSO and diluted to 10 concentrations in 4-fold serial dilution. In 384 well plates, 25 μL of human recombinant SSAO/VAP-1 (1.6 μg/ml) was added to each well. 100 nL of test compounds with different concentrations were added to each well containing human recombinant SSAO/VAP-1 and incubated at room temperature for 30 min. After 30 min incubation, 25 μl of Amplex® red monoamine oxidase assay kit (containing a reaction mixture of 200 μm Amplex Red reagent, 1 U/ml HRP and 1 mm benzylamine hydrochloride) was added to the corresponding well, and incubated at room temperature and dark for 60 min. After 60 min, the relative fluorescence unit (RFU) was read by using PerkinElmer's Envision at 530-560 nm excitation and 590 nm emission. The curve was drawn by using the graph pad prism 5 software, and the IC50 value was calculated. The results were shown in table 1, wherein the compound listed in table 1 is the compound in the preparation examples with the same compound number:

pIC50	SMILES
8.84	COc1ncc(N2CCc3cc(OC/C(=C/F)CN)ccc3C2=O)cn1
9.11	NC/C(=C/F)COc1ccc2c(c1)CCN(c1ccccn1)C2=O
9.66	NC/C(=C\F)COc1ccc2c(c1)CCN(CC1CCOCC1)C2=O
